Assay results reported in ChEMBL document CHEMBL1201861, “Genomics of Drug Sensitity in Cancer screening data, Wellcome Trust Sanger Institute”.
pIC50: −log10 of the molar value.

Assays:
Test in all cases: cells
DMS-114 = format: functional, cell-based, Homo sapiens; conditions: Homo sapiens, DMS-114
GB-1 = format: functional, cell-based, Homo sapiens; conditions: Homo sapiens, GB-1;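 also: growth of GB-1 cells judged by a viability assay, IC50 marks the concentration inhibiting growth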
Description: SANGER: Inhibition of human GB-1 cell growth in a cell viability assay.

A498 = format: functional, cell-based, Homo sapiens; conditions: Homo sapiens, A498;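 also: growth inhibition of human A498 cells, read out with a cell viability assay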
Description: SANGER: Inhibition of human A498 cell growth in a cell viability assay.

UACC-257 = format: functional, cell-based, Homo sapiens; conditions: Homo sapiens, UACC-257
Description: SANGER: Inhibition of human UACC-257 cell growth in a cell viability assay.

SK-MEL-2 = format: functional, cell-based, Homo sapiens; conditions: Homo sapiens, SK-MEL-2;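 also: growth inhibition of human SK-MEL-2 cells measured with a cell viability assay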
Description: SANGER: Inhibition of human SK-MEL-2 cell growth in a cell viability assay.

MLMA = format: functional, cell-based, Homo sapiens; conditions: Homo sapiens, MLMA;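 also: growth inhibition of MLMA cells (human), determined through a cell viability readout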
Description: SANGER: Inhibition of human MLMA cell growth in a cell viability assay.

GOTO = format: functional, cell-based, Homo sapiens; conditions: Homo sapiens, GOTO;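 also: growth inhibition of GOTO cells, read out by a cell viability assay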
Description: SANGER: Inhibition of human GOTO cell growth in a cell viability assay.

MZ1-PC = format: functional, cell-based, Homo sapiens; conditions: Homo sapiens, MZ1-PC;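 also: cell viability assay measuring growth inhibition of human MZ1-PC cells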
Description: SANGER: Inhibition of human MZ1-PC cell growth in a cell viability assay.

HCE-T = format: functional, cell-based, Homo sapiens; conditions: Homo sapiens, HCE-T;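 also: cell viability assay read-out, reporting inhibition of HCE-T cell growth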
Description: SANGER: Inhibition of human HCE-T cell growth in a cell viability assay.

SHP77 = format: functional, cell-based, Homo sapiens, SHP-77; conditions: Homo sapiens, SHP77;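 also: growth inhibition of human SHP-77 cells measured by a cell viability assay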
Description: SANGER: Inhibition of human SHP-77 cell growth in a cell viability assay.

no-10 = format: functional, cell-based, Homo sapiens; conditions: Homo sapiens;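 also: growth inhibition of no-10 cells, read out with a cell viability assay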
Description: SANGER: Inhibition of human no-10 cell growth in a cell viability assay.

SF-539 = format: functional, cell-based, Homo sapiens; conditions: Homo sapiens, SF-539;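 also: Read-out is a cell viability assay, with IC50 reflecting inhibition of cell growth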
Description: SANGER: Inhibition of human SF539 cell growth in a cell viability assay.

OVCAR-4 = format: functional, cell-based, Homo sapiens; conditions: Homo sapiens, OVCAR-4;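 also: growth inhibition of human OVCAR-4 cells, measured with a cell viability assay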
Description: SANGER: Inhibition of human OVCAR-4 cell growth in a cell viability assay.

GI-1 = format: functional, cell-based, Homo sapiens; conditions: Homo sapiens, GI-1;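 also: growth inhibition of human GI-1 cells, measured with a cell viability readout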
Description: SANGER: Inhibition of human GI-1 cell growth in a cell viability assay.

NB13 = format: functional, cell-based, Homo sapiens; conditions: Homo sapiens, NB13;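 also: cell viability readout measuring growth inhibition of human NB13 cells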
Description: SANGER: Inhibition of human NB13 cell growth in a cell viability assay.

NCI-H1299 = format: functional, cell-based, Homo sapiens; conditions: Homo sapiens, NCI-H1299;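 also: growth inhibition of human NCI-H1299 cells, read out by a cell viability assay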
Description: SANGER: Inhibition of human NCI-H1299 cell growth in a cell viability assay.

LOX IMVI = format: functional, cell-based, Homo sapiens; conditions: Homo sapiens, LOX IMVI
Description: SANGER: Inhibition of human LOXIMVI cell growth in a cell viability assay.

CW-2 = format: functional, cell-based, Homo sapiens; conditions: Homo sapiens, CW-2;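 also: growth inhibition of CW-2 cells, read out by a cell viability assay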
Description: SANGER: Inhibition of human CW-2 cell growth in a cell viability assay.

TGBC1TKB = format: functional, cell-based, Homo sapiens; conditions: Homo sapiens, TGBC1TKB;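 also: growth inhibition of TGBC1TKB cells, read out by a cell viability assay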
Description: SANGER: Inhibition of human TGBC1TKB cell growth in a cell viability assay.

IA-LM = format: functional, cell-based, Homo sapiens; conditions: Homo sapiens, IA-LM;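 also: cell viability assay measuring growth inhibition of human IA-LM cells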
Description: SANGER: Inhibition of human IA-LM cell growth in a cell viability assay.

GCIY = format: functional, cell-based, Homo sapiens; conditions: Homo sapiens, GCIY;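 also: growth inhibition of the human GCIY cell line, read out by a cell viability assay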
Description: SANGER: Inhibition of human GCIY cell growth in a cell viability assay.

DSH1 = format: functional, cell-based, Homo sapiens; conditions: Homo sapiens, DSH1;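 also: growth inhibition of human DSH1 cells, measured with a cell viability readout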
Description: SANGER: Inhibition of human DSH1 cell growth in a cell viability assay.

KINGS-1 = format: functional, cell-based, Homo sapiens; conditions: Homo sapiens, KINGS-1;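 also: cell viability assay measuring suppression of KINGS-1 cell growth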
Description: SANGER: Inhibition of human KINGS-1 cell growth in a cell viability assay.

BB30-HNC = format: functional, cell-based, Homo sapiens; conditions: Homo sapiens, BB30-HNC;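 also: growth inhibition of the cultured cell line, read out by a cell viability assay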
Description: SANGER: Inhibition of human BB30-HNC cell growth in a cell viability assay.

NCI-H1650 = format: functional, cell-based, Homo sapiens; conditions: Homo sapiens, NCI-H1650;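 also: growth inhibition of human NCI-H1650 cells measured by a cell viability assay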
Description: SANGER: Inhibition of human NCI-H1650 cell growth in a cell viability assay.

EW-1 = format: functional, cell-based, Homo sapiens; conditions: Homo sapiens, EW-1;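 also: growth inhibition of the human EW-1 cell line, read out by a cell viability assay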
Description: SANGER: Inhibition of human EW-1 cell growth in a cell viability assay.

NH-12 = format: functional, cell-based, Homo sapiens; conditions: Homo sapiens, NH-12;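 also: growth inhibition of NH-12 cells, read out with a cell viability assay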
Description: SANGER: Inhibition of human NH-12 cell growth in a cell viability assay.

TE-1 = format: functional, cell-based, Homo sapiens; conditions: Homo sapiens, TE-1;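 also: growth inhibition of the human TE-1 cell line, read out with a cell viability assay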
Description: SANGER: Inhibition of human TE-1 cell growth in a cell viability assay.

Compound: CC(C)c1ccccc1Cc1cc(C(=O)Nc2ccc(S(=O)(=O)c3ccccc3C(C)(C)C)cc2)c(O)c(O)c1O
- pIC50 (DMS-114): 7.04
- pIC50 (GB-1): 7.01
- pIC50 (A498): 5.83
- pIC50 (UACC-257): 6.26
- pIC50 (SK-MEL-2): 6.64
- pIC50 (MLMA): 6.73
- pIC50 (GOTO): 6.77
- pIC50 (MZ1-PC): 6.20
- pIC50 (HCE-T): 6.64
- pIC50 (SHP77): 6.35
- pIC50 (no-10): 6.56
- pIC50 (SF-539): 6.33
- pIC50 (OVCAR-4): 6.22
- pIC50 (GI-1): 6.89
- pIC50 (NB13): 6.80
- pIC50 (NCI-H1299): 6.55
- pIC50 (LOX IMVI): 6.57
- pIC50 (CW-2): 6.35
- pIC50 (TGBC1TKB): 5.95
- pIC50 (IA-LM): 5.81
- pIC50 (GCIY): 7.68
- pIC50 (DSH1): 6.29
- pIC50 (KINGS-1): 5.56
- pIC50 (BB30-HNC): 6.79
- pIC50 (NCI-H1650): 5.31
- pIC50 (EW-1): 6.64
- pIC50 (NH-12): 6.76
- pIC50 (TE-1): 6.02
